{
  "source": "patent US3966978A",
  "about": "(American Cyanamid Company, priority 1975, dated 1976)",
  "key": {"[1]": {"tested_on": "human platelet rich plasma", "assay": "Collagen-induced platelet aggregation in vitro in human platelet rich plasma (method of Born and O'Brien), change in optical density", "format": "cell-based", "settings": "collagen 500 mcg./ml., read-out: Percent Inhibition (of maximum aggregation response to collagen in a control sample)", "protocol": "Various concentrations of the compound were added in vitro to human platelet rich plasma. Collagen (final concentration 500 mcg./ml.) was added to induce platelet aggregation. Inhibition of platelet aggregation was determined by measuring the change in the optical density of the platelet rich plasma."}, "platelet rich plasma": {"tested_on": "platelet rich plasma", "assay": "Collagen-induced aggregation of platelet rich plasma from orally treated male rats", "format": "in vivo", "settings": "Rattus norvegicus, po, 2 h, 100 mg./kg. orally, bled after one to two hours, collagen 500 mcg./ml., read-out: Percent Inhibition of aggregation", "protocol": "In a second test the in vivo activity of the compound was established. In this test the compound was administered orally to male rats at a concentration of 100 mg./kg. After one to two hours, the rats were bled and platelet rich plasma obtained. Collagen, at a concentration of 500 mcg./ml. was added to induce platelet aggregation and comparisons were made between control and treated samples. The percent inhibition of aggregation produced by the compound of this invention appears in Table II."}, "[2]": {"tested_on": "respiratory depression associated with platelet aggregation and thrombosis induced by arachidonic acid", "assay": "Respiratory depression induced by arachidonic acid in mice", "format": "in vivo", "protocol": "Two hours later a challenge dose of arachidonic acid was given to the mice intravenously at a concentration of 50 mg./kg. The period of respiratory distress for each animal was recorded in seconds by observation. The results appear in Table III in comparison with controls who received only starch vehicle."}, "pain": {"tested_on": "pain", "settings": "warm-blooded animals; U.S. Pat. No. 3,784,704; cited from earlier work"}},
  "note": "Where “and” joins values, the source holds several entries; their conditions need not be identical. Identical values can stand only once.",
  "data": [
    {"smiles": "O=C(O)Cc1ccc(-c2ccccc2)cc1", "note": "[4-Biphenylacetic acid]", "values": [
      {"measurement": "inhibition at 25 µg/mL", "setting": "[1]; concentration 25 mcg./ml.", "value": 38.6, "unit": "%"},
      {"measurement": "inhibition at 250 µg/mL", "setting": "[1]; concentration 250 mcg./ml.", "value": 40.7, "unit": "%"},
      {"measurement": "inhibition at 100 mg/kg", "setting": "platelet rich plasma", "value": 12, "unit": "%"},
      {"measurement": "period of respiratory distress, Average, Treated", "setting": "[2]; 100 mg./kg. orally, arachidonic acid 50 mg./kg. i.v. two hours later, average of 21 treated animals (controls 7.58 minutes)", "value": 1.93, "unit": "min"},
      {"measurement": "period of respiratory distress, Time in Seconds, Treated (individual animals)", "setting": "[2]; 100 mg./kg. orally, arachidonic acid 50 mg./kg. i.v. two hours later, individual animals 1-21, one line each in order", "value": "420 s and 200 s and 30 s and 150 s and 170 s and 80 s and 195 s and 125 s and 35 s and 120 s and 25 s and 20 s and 60 s and 50 s and 90 s and 75 s and 70 s and 189 s and 100 s"},
      {"measurement": "inhibition of respiratory depression induced by arachidonic acid (in words)", "setting": "[2]; in vivo", "value": "inhibits the respiratory depression"},
      {"measurement": "amelioration of pain (in words)", "setting": "pain", "value": "long lasting amelioration of pain"}
    ]}
  ]
}
